How the values were obtained:
p53(Y220C)_NUGC-3 = p53(Y220C)_NUGC-3 (Homo sapiens, UniProt P04637, Y220C); assay: Reporter gene assay (NUGC-3_P53_Luc cells); assay type: cell-based; conditions: 6 hours, 37 °C, luciferase, normalized to Ref-1a 10 μM, EC50 = concentration at 50% Activity, read-out: p53(Y220C)_NUGC-3 EC50
Method: NUGC-3_P53_Luc single clonal cell line was established using pGL4.38[luc2P/p53 RE/Hygro] Vector (E365A, promega). NUGC-3_P53_Luc single clonal cells were cultured in 37 °C cell incubator before use. NUGC-3_P53_Luc cells were collected and washed twice with PBS to remove phenol red and then resuspended in medium to a proper concentration. Tested compound dilutions were transferred into 384 well assay plates (PerkinElmer). A desired number of cells was seeded into the assay plate and cultured for 6 hours at 37 °C cell incubator. Britelite plus Luciferase Assay Reagent were added into each well and the luminescence value was recorded on Envision. The percent of activity value of compounds treated wells was normalized between high control and low control. Wells containing cells and Ref-la (10 μM) served as high control, and wells containing cells and same percentage of DMSO served as low control. Activity value (%)=(Luminescence readoutCompound treated−Luminescence readoutLow control)/(Luminescence readoutHigh control−Luminescence readoutLow control)*100%. Then the data were analyzed either by fitting a 4-parameter logistic model or by Excel to calculate EC50 values and the EC50 was the concentration at 50% Activity on the curve.

p53(Y220C) = molecular target: T1, p53(Y220C) (Homo sapiens, UniProt P04637, Y220C); assay: In vitro DNA binding assay (HTRF), His-p53 Y220C (94-294) with biotinylated p53 consensus DNA; assay type: biochemical; conditions: HTRF; 27 °C; His-p53 Y220C (94-294) 2.5 nM; biotinylated DNA 10 nM; normalized to 2 μM Ref-1a; EC50 = concentration at 50% Activation; read-out: p53(Y220C) EC50
T1 construct: His-p53 Y220C (94-294) protein
Method: After His-p53 Y220C (94-294) protein was placed with a compound in the present of MAb Anti His-Tb cryptate (Cisbio, Cat. NO. 61HI2TLA) in a 384 well microplate (Greiner) for 15 min at 25 °C, the assay plate was transferred into 27 °C incubator and incubated for 60 min. Biotinalyted p53 consensus DNA (ID: p53-SEQUENCE 2 —F: 5′(biotin)-[…] 3′ —R: 5′ […] 3′) was added into the assay plate in the present of Streptaidin-d2 (Cisbio, Cat. NO. 610SADLF) cryptate (Final concentration: 20 mM HEPES pH=7.4, 75 mM KCl, 1 mM MgCl2, 0.1% (w/v) BSA, 1 mM DTT, 2.5 nM His-P53 Y220C (94-294) protein, 0.33 nM MAb Anti His-Tb cryptate, 2.5 nM Streptaidin-d2 cryptate, 10 nM Biotinalyted DNA) and incubated for another 60 min. Wells containing 2 μM reference compound Ref-1a served as high control, and wells containing same percentage of DMSO served as low control. Homogeneous time-resolved fluorescence (HTRF) signals were read on Tecan Spark multimode microplate reader. HTRF ratios for each individual well were calculated by equation: HTRF ratio=(Signal F665/Signal F620)*1000. The percent of activation of compounds treated wells were normalized between high control and low control (% Activation=(HTRF ratiocompound treated−HTRF ratiolow control)/(HTRF ratiohigh control−HTRF ratiolow control)*100%). Then the data were analyzed either by fitting a 4-parameter logistic model or by Excel to calculate EC50 values. And the EC50 was the concentration at 50% Activation on the curve.

NUGC-3 (P53 Y220C) = assay: Cell viability assay (CellTiter-Glo); assay type: cell-based; conditions: Homo sapiens, 144 h, NUGC-3 cells, 6 days, 37 °C
Method: Cells were collected and counted. A desired number of cells was seeded into 96-well microplate and cultured in 37 °C cell incubator overnight. Compounds dissolved in cell culture medium were added into cell plate and cultured for 6 days. After balancing CellTiter-Glo reagent and cells at room temperature for 30 min, equal volume of CellTiter-Glo reagents was added to assay plate and shaken for 2 min for cell lysis. The cells were balanced at room temperature for 10 minutes and Luminescence signal was read using Envision. The percent of cell viability for compounds treated wells were normalized between High control and low control. Wells containing cell culture medium and same percentage DMSO served as Low control. Wells containing cells and same percentage DMSO served as High control. Cell viability (%)=(Luminescence readoutCompound treated−Luminescence readoutLow control)/(Luminescence readoutHigh control−Luminescence readoutLow control)*100%. Then the data were analyzed either by fitting a 4-parameter logistic model or by Excel to calculate IC50 values. And the IC50 was the concentration at […] Cell viability on the curve.

SMILES	EC50 (p53(Y220C)_NUGC-3)	EC50 (p53(Y220C))	IC50 (NUGC-3 (P53 Y220C))
COc1cc(P(C)(C)=O)ccc1NCC#Cc1sc2c(N[C@@H]3CC[N@@+](C)([O-])C[C@@H]3F)cccc2c1CC(F)(F)F (single isomer, unassigned) [Example 7]	3940 nM	81 nM	–
COc1cc([S@](C)(=N)=O)ccc1NCC#Cc1sc2c(N[C@@H]3CC[N@+](C)([O-])C[C@@H]3F)cccc2c1CC(F)(F)F (single isomer, unassigned) [Example 8]	7230 nM	38 nM	–
COc1cc([S@](C)(=N)=O)ccc1NCC#Cc1sc2c(N[C@@H]3CC[N@@+](C)([O-])C[C@@H]3F)cccc2c1CC(F)(F)F (single isomer, unassigned) [Example 9]	1900 nM	62 nM	–
COc1cc(P(C)(C)=O)ccc1NCC#Cc1sc2c(N[C@@H]3CC[N@+](C)([O-])C[C@@H]3F)cccc2c1CC(F)(F)F (single isomer, unassigned) [Example 10]	11100 nM	53 nM	–
CN1CC[C@@H](Nc2cccc3c(CC(F)(F)F)c(C#CCNc4ccc(P(C)(C)=O)c5ccoc45)sc23)[C@@H](F)C1 [Example 2, (7-((3-(7-(((3S,4R)-3-fluoro-1-methylpiperidin-4-yl)amino)-3-(2,2,2-trifluoroethyl)benzo[b]thiophen-2-yl)prop-2-yn-1-yl)amino)benzofuran-4-yl)dimethylphosphine oxide]	196 nM	–	–
CN1CC[C@@H](Nc2cccc3c(CC(F)(F)F)c(C#CCNc4ccc(P(C)(C)=O)cc4-c4cc[nH]n4)sc23)[C@@H](F)C1 [Example 3, (4-((3-(7-(((3S,4R)-3-fluoro-1-methylpiperidin-4-yl)amino)-3-(2,2,2-trifluoroethyl)benzo[b]thiophen-2-yl)prop-2-yn-1-yl)amino)-3-(1H-pyrazol-3-yl)phenyl)dimethylphosphine oxide]	55 nM	–	1400 nM
COc1cc(P(C)(C)=O)ccc1NCC#Cc1sc2c(NC3CN(C)CC3F)cccc2c1CC(F)(F)F (stereo not drawn) [Example 13, (4-((3-(7-((4-fluoro-1-methylpyrrolidin-3-yl)amino)-3-(2,2,2-trifluoroethyl)benzo[b]thiophen-2-yl)prop-2-yn-1-yl)amino)-3-methoxyphenyl)dimethylphosphine oxide]	138 nM	104 nM	1390 nM
COc1cc(S(=N)(=O)C2CCOCC2)ccc1NCC#Cc1sc2c(NC3CCN(C)CC3F)cccc2c1CC(F)(F)F [Example 24, (S)-(4-((3-(7-(((3S,4R)-3-fluoro-1-methylpiperidin-4-yl)amino)-3-(2,2,2-trifluoroethyl)benzo[b]thiophen-2-yl)prop-2-yn-1-yl)amino)-3-methoxyphenyl)(imino)(tetrahydro-2H-pyran-4-yl)-16-sulfanone]	119 nM	68 nM	900 nM
COc1cc([S@](=N)(=O)C(C)C)ccc1NCC#Cc1sc2c(N[C@@H]3CCN(C)C[C@@H]3F)cccc2c1CC(F)(F)F [Example 26, (R)-(4-((3-(7-(((3S,4R)-3-fluoro-1-methylpiperidin-4-yl)amino)-3-(2,2,2-trifluoroethyl)benzo[b]thiophen-2-yl)prop-2-yn-1-yl)amino)-3-methoxyphenyl)(imino)(isopropyl)-16-sulfanone]	208 nM	70 nM	1840 nM

Now from value to molecule, other results behind:

EC50 (p53(Y220C)_NUGC-3)	EC50 (p53(Y220C))	SMILES	IC50 (NUGC-3 (P53 Y220C))
244 nM	77 nM	COc1cc(P(C)(C)=O)ccc1NCC#Cc1sc2c(N[C@@H]3CCCN(C)C3)cccc2c1CC(F)(F)F [Example 28, (R)-(3-methoxy-4-((3-(7-((1-methylpiperidin-3-yl)amino)-3-(2,2,2-trifluoroethyl)benzo[b]thiophen-2-yl)prop-2-yn-1-yl)amino)phenyl)dimethylphosphine oxide]	1550 nM
126 nM	29 nM	COc1cc(P(C)(C)=O)ccc1NCC#Cc1sc2c(N[C@@H]3CCN(C)C[C@@H]3F)cccc2c1[C@H](O)C(F)(F)F [Example 31, (4-((3-(7-(((3S,4R)-3-fluoro-1-methylpiperidin-4-yl)amino)-3-((S)-2,2,2-trifluoro-1-hydroxyethyl)benzo[b]thiophen-2-yl)prop-2-yn-1-yl)amino)-3-methoxyphenyl)dimethylphosphine oxide]	870 nM
102 nM	55 nM	COc1cc(P(C)(C)=O)ccc1NCC#Cc1sc2c(N[C@@H]3CCN(C)C[C@@H]3F)cccc2c1[C@@H](O)C(F)(F)F [Example 33, (4-((3-(7-(((3S,4R)-3-fluoro-1-methylpiperidin-4-yl)amino)-3-((R)-2,2,2-trifluoro-1-hydroxyethyl)benzo[b]thiophen-2-yl)prop-2-yn-1-yl)amino)-3-methoxyphenyl)dimethylphosphine oxide]	1440 nM
28 nM	20 nM	COc1cc(P(C)(C)=O)ccc1NCC#Cc1sc2c(N[C@H]3CCN(C)C[C@H]3F)cccc2c1[C@@H](O)C(F)(F)F [Example 34, (4-((3-(7-(((3R,4S)-3-fluoro-1-methylpiperidin-4-yl)amino)-3-((R)-2,2,2-trifluoro-1-hydroxyethyl)benzo[b]thiophen-2-yl)prop-2-yn-1-yl)amino)-3-methoxyphenyl)dimethylphosphine oxide]	380 nM
117 nM	81 nM	COc1cc(S(C)(=O)=O)ccc1NCC#Cc1sc2c(N[C@@H]3CCN(C)C[C@@H]3F)cccc2c1CC(F)(F)F [Example 36, (3S,4R)-3-fluoro-N-(2-(3-((2-methoxy-4-(methylsulfonyl)phenyl)amino)prop-1-yn-1-yl)-3-(2,2,2-trifluoroethyl)benzo[b]thiophen-7-yl)-1-methylpiperidin-4-amine]	590 nM
137 nM	56 nM	COc1c(NCC#Cc2sc3c(N[C@@H]4CCN(C)C[C@@H]4F)cccc3c2CC(F)(F)F)ccc(P(C)(C)=O)c1C [Example 41, (4-((3-(7-(((3S,4R)-3-fluoro-1-methylpiperidin-4-yl)amino)-3-(2,2,2-trifluoroethyl)benzo[b]thiophen-2-yl)prop-2-yn-1-yl)amino)-3-methoxy-2-methylphenyl)dimethylphosphine oxide]	1230 nM
252 nM	93 nM	COc1c(NCC#Cc2sc3c(N[C@@H]4CCN(C)C[C@@H]4F)cccc3c2CC(F)(F)F)ccc(P(C)(C)=O)c1C(F)(F)F [Example 42, (4-((3-(7-(((3S,4R)-3-fluoro-1-methylpiperidin-4-yl)amino)-3-(2,2,2-trifluoroethyl)benzo[b]thiophen-2-yl)prop-2-yn-1-yl)amino)-3-methoxy-2-(trifluoromethyl)phenyl)dimethylphosphine oxide]	1890 nM
50 nM	–	COc1cc(S(C)(=O)=O)ccc1NCC#Cc1cc2c(N[C@@H]3CCN(C)C[C@@H]3F)cccc2n1CC(F)(F)F [Ref-1a, reference compound]	–
